Results on 1 compound are retold here after US20050282870A1, “Peripherally-acting vasodilators” (priority 2004, published 2005).

The assay deals with forearm and dorsum of the foot skin. Briefly: Skin vasodilatory response to topical application of 1% methyl nicotinate, Laser Doppler Perfusion Imaging. In kind it is in vivo, human. As to conditions: for maximal vasodilatory response: compared with acetylcholine and sodium nitroprusside. As for the experimental part: Vasodilation induced by topical application of methyl nicotinate was evaluated and compared with the vasodilatory response to acetylcholine and sodium nitroprusside in healthy subjects and diabetic neuropathic patients. Ten diabetic patients with peripheral neuropathy and 10 age- and sex-matched healthy control subjects were enrolled. The vasodilatory response to topical application of 1% methyl nicotinate and a placebo emulsion at the forearm and dorsum of the foot skin at 4, 15, 30, 60 and 120 min was measured using Laser Doppler Perfusion Imaging. The vasodilatory response to iontophoresis of 1% acetylcholine and 1% sodium nitroprusside solutions was also evaluated.

For the compound `COC(=O)c1cccnc1` [methyl nicotinate], where the note is “control group (healthy subjects), foot, topical 1%, compared to acetylcholine and sodium nitroprusside responses”, the vasodilatory response result is on record as “higher”. Also, the maximal vasodilatory response result (control group (healthy subjects), forearm, topical 1%) was “similar”. Also, the maximal vasodilatory response entry (diabetic patients with peripheral neuropathy, forearm and foot, topical 1%) is on record as “similar”. Also, for the setting “topical 1% methyl nicotinate”, the “time after application at which vasodilation was present” value turned out to be 5 min, the “time of decline of vasodilation to pre-application levels” value was determined as 120 min and the “time of peak vasodilation” value fell in the range of 15 to 30 min.
